Data from the METLIN SMRT retention time set (Domingo-Almenara et al. 2019).

Experiment: gradient 5% acetonitrile 3 min, to 50% in 2 min, to 85% in 15 min, held 3 min, 100 µL/min
Details: column: Zorbax Extend-C18 2.1 x 50 mm; eluents: water / acetonitrile, 0.1% formic acid
Procedure, shortened: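 Standards, all pure, were combined into mixtures of ~100 molecules and run at 100 μL/min on a Zorbax Extend-C18 column (2.1 × 50 mm, 1.8 μm) with water and acetonitrile, each containing 0.1% formic acid. A coupled quadrupole time-of-flight mass spectrometer operated in positive and negative ionization mode. Retention time values come from computationally picked adduct peaks, each inspected manually.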

| Compound | RP-LC retention time [s] |
| --- | --- |
| O=C(C1CC1)N1CCN(S(=O)(=O)c2cc(-c3noc(C4CCC4)n3)cs2)CC1 | 926 |
| CN1C(=O)c2cc(C(=O)N3CCC(C(N)=O)CC3)nn2CC1(C)C(=O)NC1CCCC1 (centres undefined) | 888 |
| Cc1ccc(OCC(=O)NC2(c3nc(-c4cccnc4)no3)CCCCC2)cc1 | 1010 |
| COc1ccccc1CNC(=O)C1CCCN(c2cnc3nccnc3c2)C1 (centres undefined) | 689 |
| Cc1nc(OCC(=O)Nc2cccc(C(F)(F)F)c2)c2ccccc2n1 | 817 |
| Fc1cc(F)cc(CN2CCCN(c3ncccc3-c3nc(C4CC4)no3)CC2)c1 | 720 |
| Cc1nc2cc(N3CCC(C(=O)Nc4ccc5c(c4)OCCO5)CC3)cnc2nc1C | 697 |
| Cc1ccc(NC(=O)N2CCCC(Cn3cnc4cccnc43)C2)cc1F (centres undefined) | 718 |
| O=c1n(Cc2ccccc2Cl)nc2ccc(S(=O)(=O)N3CCCC3)cn12 | 866 |
| COc1ccccc1C1(CNS(=O)(=O)c2ccc3c(c2)CCCC3)CCOCC1 | 1000 |
| Cc1nn2c(nnc3c(=O)n(CCc4c[nH]c5ccc(F)cc45)ccc32)c1-c1ccc(F)cc1 | 961 |
| CC1CCN(S(=O)(=O)c2cccn(CC#N)c2=O)CC1 | 749 |
| CCOc1ccc(C2Cn3nnc(-c4nc(-c5ccc(C)c(C)c5)no4)c3CO2)cc1 (centres undefined) | 1290 |
| CCCNC(=O)NC1CCN(c2nc3ccccc3n(C)c2=O)CC1 | 715 |
| O=C(C1CCN(c2ncnc3c2oc2ccccc23)CC1)N1CCN(c2cccc(Cl)c2)CC1 | 930 |
| Cc1ccc(F)cc1NC(=O)CN1CCC(c2nc(-c3cccs3)no2)CC1 | 725 |
| O=C(Cn1cccc1-c1nc(-c2ccc3c(c2)OCO3)no1)Nc1ccccc1 | 1140 |
| O=C(Nc1ccc2c(c1)OCCO2)C(=O)c1cn(CC(=O)N2CCCCC2)c2ccccc12 | 1010 |
| CCc1ccc(N2CC(c3noc(-c4ccccc4Cl)n3)CC2=O)cc1 (centres undefined) | 1050 |
| COc1ccccc1C(=O)N1CCC2(C1)C(=O)N(C)c1ccccc12 (centres undefined) | 738 |
| Cc1cc(OCC(=O)Nc2ccc3c(c2)OCO3)nc(-c2ccc(F)cc2)n1 | 960 |
| CCOCCCNC(=O)c1cn(C)nc1S(=O)(=O)N1CCN(c2ccccc2OCC)CC1 | 923 |
| CCOC(=O)c1cnc2c(-c3ccccc3OC)c(C)nn2c1N | 879 |

| Compound | RP-LC retention time [s] |
| --- | --- |
| Cc1ccc(Sc2nccnc2N2CCCC(C(=O)NCc3ccc(N(C)C)cc3)C2)cc1 (centres undefined) | 837 |
| COC(=O)c1ccccc1NC(=O)NCCn1c(C)nc2ccccc21 | 630 |
| CCc1nnc(-c2cc(C)n(CC(=O)Nc3ccc(OC)cc3)c2C)o1 | 753 |
| CCn1cc(CN2CCC(C(=O)NCc3ccc(C)cc3)CC2)c2cc(OC)ccc21 | 720 |
| Cc1cccc(NC(=O)N(C)CCc2noc(COc3ccccc3)n2)c1C | 913 |
| CCCCS(=O)(=O)N1CCc2c(c(-c3nnc(SCC)n3CC)nn2C)C1 | 878 |
| Cc1c(-c2noc(C(=O)N3CCc4ccccc4C3)n2)oc2c(C)cccc12 | 1280 |
| Cc1cc(C2CCCN2C(=O)c2ccc(C)s2)no1 (centres undefined) | 770 |
| Cn1cc(CC(=O)NCC2CCCCC2)c2cccnc21 | 734 |
| NC1(C(=O)N[C@@H](CCO)c2ccc(Cl)cc2)CCN(c2ncnc3[nH]ccc23)CC1 | 610 |
| CCCn1cc(C(=O)NCCCOCC)c(S(=O)(=O)N2CCN(c3ccc(Cl)cc3)CC2)n1 | 1080 |
| Cc1oc2ccn(C)c(=O)c2c1C(=O)NCc1cccc(Br)c1 | 947 |
| CCc1cccc(C)c1Nc1c(-c2ccc(SC)cc2)nc2nc(C)cc(C)n12 | 867 |
| CCCn1cc(SCC(=O)Nc2cc(C)on2)c2ccccc21 | 883 |
| CCN(CC)C(=O)Cn1nc2cc(C)nc(-c3cccc(Cl)c3)n2c1=O | 790 |
| Cc1ccc(CNC(=O)C2(C)CCN(C(=O)c3ccccc3C(F)(F)F)CC2)cc1 | 894 |
| COc1ccc(OC)c(S(=O)(=O)Nc2cccn3c(C4CCC4)nnc23)c1 | 772 |
| CCC(C(=O)Nc1c(-c2ccccc2)nc2cc(C)ccn12)c1ccccc1 (centres undefined) | 939 |
| CCOc1ccc(C(=O)n2nc(C)c(S(=O)(=O)N3CCCC3)c2C)cc1 | 1130 |
| Cc1cccc(NC(=O)Cn2c(=O)n(-c3ccccc3)c(=O)c3c2cc(C)n3C)c1 | 831 |
| O=C(Nc1cccc(Br)c1)C1CCN(C(=O)C2Sc3ccccc3NC2=O)CC1 (centres undefined) | 857 |
| O=C(Cn1cccc1-c1nc(-c2ccc(Cl)cc2)cs1)NCC1CCCO1 (centres undefined) | 1030 |
| Fc1cccc(-c2nc(-c3cn(-c4ccccc4)nn3)no2)c1 | 1040 |

| Compound | RP-LC retention time [s] |
| --- | --- |
| CCOc1ccc(CN2C[C@@H]3C(=O)N(CCN4CCc5ccccc5C4)C(=O)[C@@H]3C2)cc1 | 598 |
| Cc1ccc(-c2nnc(Cc3nc(-c4ccc(OC(C)C)cc4)no3)o2)cc1F | 1190 |
| CC(C)NC(=O)c1ccc(OCC2CCCN(C(=O)c3ccccc3)C2)cc1 (centres undefined) | 825 |
| O=C(CCc1ccccc1)N1CCOc2ccccc2C1 | 861 |
| CC(CCc1ccccc1)NC(=O)c1ccccc1NC(=O)C1=CSCCO1 (centres undefined) | 1080 |
| O=C(NCc1csc(-c2cccs2)n1)C1CCN(S(=O)(=O)c2ccc(Cl)s2)CC1 | 957 |
| COc1ccc(NC(=O)N2CCCC2c2nc(-c3ccc(F)cc3F)no2)cc1F (centres undefined) | 940 |
| COc1ccc(C(=O)N2CCC(C(=O)NCCc3csc(-c4cccs4)n3)CC2)cc1OC | 725 |
| COc1ccc(C(=O)N2CCC(c3noc(-c4ccncc4)n3)C2)cn1 (centres undefined) | 673 |
| CCOc1ccc(S(=O)(=O)N2CCCC(C(=O)Nc3ccc(OC)cc3OC)C2)cc1C (centres undefined) | 1070 |
| CCN(Cc1cc(Nc2nc(C)cn3c(-c4cn[nH]c4)cnc23)sn1)C(C)(C)CO | 682 |
| CC(C)C(=O)NCCN1CCN(c2ccc(F)cc2)CC1 | 561 |
| CCN(CC)c1nc2cc(C(=O)OC)ccc2c(=O)n1-c1ccc2c(c1)OCO2 | 1080 |
| CCNC(=O)c1cc(-c2ccccc2)n[nH]1 | 668 |
| CC1=C(c2ccc(C)cc2)S(=O)(=O)N=C1N1CCCN(C(=O)NC(C)C)CC1 | 772 |
| CCn1nnc2cc(-c3noc(CN4C(=O)COc5ccccc54)n3)ccc21 | 845 |
| O=C(C1CCCN1)N1CCC(OCc2nc(-c3ccncc3)no2)CC1 (centres undefined) | 565 |
| COc1ccc2[nH]cc(CCNC(=O)c3sc4ncccc4c3-n3cccc3)c2c1 | 932 |
| Fc1ccccc1-c1noc(Cc2nnc(-c3ccc(Cl)cc3)o2)n1 | 1100 |
| Cc1ccc(CNC(=O)C2CCN(S(=O)(=O)c3cn(C)cn3)CC2)cc1 | 732 |
| COc1ccc(-c2ncc3c(n2)CCN(C(=O)Nc2cccc(C)c2C)C3)cc1 | 894 |
| COc1ccc(-c2nc(C3CC(=O)N(c4ccc(OC)c(OC)c4)C3)no2)cc1 (centres undefined) | 1180 |
| CCOC(=O)c1c(C)[nH]c(C(=O)N2CCCC(C(=O)NCc3ccc(OC)cc3)C2)c1C (centres undefined) | 780 |

| Compound | RP-LC retention time [s] |
| --- | --- |
| CCCNC(=O)N1CCCN(C)c2ccccc21 | 613 |
| CN1CCCn2cc(S(=O)(=O)Nc3ccc(F)c(F)c3)cc2C1=O | 690 |
| COc1ccc(C2(C(=O)N3CCCOCCNC(=O)[C@@H]4CCC[C@@H]43)CC2)cc1 | 711 |
| CCc1ccc(NC(=O)c2cc(CC)n3nccc3n2)cc1 | 1140 |
| Cc1noc(-c2nc(-c3ccc(Cl)cc3)no2)n1 | 1070 |
| Cc1[nH]c2ccc(-c3nnc(SCC(=O)NCc4nc5ccccc5[nH]4)o3)cc2c1C | 642 |
| Cc1ccc(-c2nc(-c3ccc4c(c3)oc(=O)n4C(C)C)no2)c(C)c1 | 761 |
| Brc1cccc(-c2noc(-c3nc(-c4ccncc4)no3)n2)c1 | 1150 |
| O=C(NC1CCCC1)c1ccc(CN2CCN(Cc3ccc(F)cc3)C(=O)C2=O)cc1 | 768 |
| COCC1(O)CCOC2(CCN(Cc3ccc(C)cn3)CC2)C1 (centres undefined) | 568 |
| Cc1nnc(N2CCCC(C(=O)N3CCCCC3)C2)c2nn(-c3ccccc3)c(C)c12 (centres undefined) | 686 |
| Cc1ccc(N2CC(C(=O)Nc3cc(-c4ccco4)no3)CC2=O)cc1 (centres undefined) | 821 |
| CCCN1C(=O)Cc2ccccc2C1C(=O)NCc1ccco1 (centres undefined) | 721 |
| COC(=O)c1ccc2c(=O)n(-c3cccc(F)c3)c(N3CCCCCC3)nc2c1 | 1210 |
| Cc1cc2n(n1)CCCN2C(=O)CCC(=O)N1CCN(Cc2ccc3c(c2)OCO3)CC1 | 577 |
| O=S(=O)(c1ccc(-c2noc(-c3ccc(F)c(F)c3)n2)cc1)N1CCOCC1 | 1110 |
| O=C(Nc1ccc(C2(C(=O)NCC3CCCO3)CC2)cc1)c1ccc(Br)cc1 (centres undefined) | 828 |
| Cc1cccc2c(=O)n(C3CCN(S(=O)(=O)c4ccc(F)c(F)c4)CC3)cnc12 | 989 |
| Cc1cccc(S(=O)(=O)NCc2c(-c3ccccc3)nc3sc(C)nn23)c1 | 802 |
| CCOc1ccccc1NC(=O)CC1Sc2ccccc2NC1=O (centres undefined) | 829 |
